# Key:
# [1] = Perimortem and postmortem concentrations in tissues and body fluids after pulmonary administration of 5F-MDMB-P7AICA to pigs (LC-MS/MS); format: in vivo; details: pig
# Description: The experiments were conducted in compliance with the German legislation on protection of animals and the National Institutes of Health Guide for the Care and Use of Laboratory Animals (permission number 32/2018). Six domestic male pigs (Swabian Hall strain; body weight [BW] 40–51.2 kg, 3 months old) were kept with free access to water and standard daily food (OlymPig fattening feed, Raiffeisen, Münster, Germany). One night prior to the experiments, the animals were kept fasting. […] The room temperature was 22 ± 1 °C with a humidity of 55 ± 10%.
# As previously described (Doerr et al. [2020]; Schaefer et al. [2019], [2020a]), an ethanolic solution of 5 mg/mL 5F-MDMB-P7AICA was prepared. An aliquot of 1.600–2.048 mL was filled up with ethanol to a total volume of 2 mL, if needed to achieve a concentration of 200 µg per kg BW. The SC was administered inhalatively over 6.5–8 min, using a M-Neb flow + ventilation ultrasonic nebulizer MN-300/7 (Nebutec, Elsenfeld, Germany) in the inspiration-triggered mode.
# Animal euthanasia was conducted eight hours after the drug administration using T 61 (embutramide, 0.12 mL/kg BW, Intervet Deutschland GmbH, Unterschleißheim, Germany). Afterwards, the abdominal cavity was opened. Samples of the following organs, tissues and body fluids were collected (PMI 0) and stored at − 20 °C until further analysis: Brain (cerebrum), lungs and liver with no differentiation between the lobes, kidneys, muscle tissue (from the hindleg), adipose tissue (subcutaneous (sc), dorsal, perirenal), bile fluid, duodenum content, urine (only at PMI 0) and PB (V. jugularis) as well as CB.
# The abdominal cavity was sutured leaving the organs in situ and the animal bodies were kept at room temperature in a supine position. Analogously, samples were taken again after 24, 48 and 72 h (PMI 1–3), respectively. Yet, PM PB specimens were obtained by sampling the coagulated blood from the V. femoralis or V. brachialis. For this purpose, the whole vessel was sampled and the blood was drawn therefrom using a pipette with a wide lumen.
# Specimens were prepared according to a previous published method (Schaefer et al. [2017], [2019], [2020a]) with changes regarding the applied buffers and the amount of acetonitrile. An amount of 2 g of solid tissue (brain, lung, liver, kidney and muscle tissue) was homogenized (1:5 w/w with water), respectively and 1 g of body fluids (bile fluid, duodenum content, and urine) was diluted (1:10 w/w for bile and duodenum content, 1:5 w/w for urine, respectively, with water). The samples were stored at − 20 °C.
# To determine the standard addition calibration curves, four 0.5 g aliquots were added to 20 µL of an ethanolic stable-isotope-labeled internal standard solution (SIL-IS, 1 ng/20 µL AB-FUBINACA-d4) and 25 µL of ethanol or an ethanolic solution of the analytes.
# Subsequently, the solution was mixed with 500 µL of acetate buffer and 50 µL of β-glucuronidase/arylsulfatase and incubated for 2 h at 60 °C to induce enzymatic hydrolysis of the glucuronidated DBA (phase-II metabolite).
# For the following protein precipitation, the samples were mixed with 500 µL of acetonitrile and centrifuged at 3500g for 8 min. The supernatants were transferred to 1 mL phosphate buffer (pH 9) vortexed and centrifuged at 3500g for 8 min again.
# Solid phase extraction (SPE) was carried out using Strata C18 end capped cartridges (Phenomenex, Aschaffenburg, Germany), previously conditioned with 2 × 3 mL methanol and 3 mL phosphate buffer. After loading the samples, the columns were washed with 3 mL phosphate buffer, 3 mL acetic acid (0.25 M) and 3 mL deionized water, respectively. 60 μL acetone was added and columns were dried for 5 min using negative pressure (about 33 kPa). Thereafter, the analytes were eluted with a mixture of 1.5 mL methanol-acetone (1:1, v/v) and the eluate was evaporated under a gentle stream of nitrogen at 60 °C. […]
# [2] = design: method as in Walle et al. [2023]; details: authentic fatal case, comparable survival time after drug intake; ref Walle et al. [2023]; cited from earlier work
# P-glycoprotein = test system: P-glycoprotein; design: method as in unpublished data of the authors; details: ref unpublished data of the authors; cited from earlier work
# [3] = 200 µg/kg BW inhalative, PMI 0 (8 h after administration)
# [4] = 200 µg/kg BW inhalative, PMI 1 (24 h after euthanasia, room temperature)
# [5] = 200 µg/kg BW inhalative, PMI 2 (48 h after euthanasia, room temperature)
# [6] = 200 µg/kg BW inhalative, PMI 3 (72 h after euthanasia, room temperature)
smiles,measurement,setting,value
"COC(=O)C(NC(=O)c1cn(CCCCCF)c2ncccc12)C(C)(C)C (stereo not shown) [5F-MDMB-P7AICA, methyl[2-[1-(5-fluoropentyl)-1H-pyrrolo[2,3-b]pyridin-3-yl]formamido]-3,3-dimethylbutanoate]",Mean concentration ± SD in CB (central blood),[1]; [3],0.21 ± 0.10 n = 6 ng/mL
same,Mean concentration ± SD in bile fluid,[1]; [3],11 ± 9.9 n = 6 ng/g
same,Mean concentration ± SD in brain,[1]; [3],0.33 ± 0.15 n = 6 ng/g
same,Mean concentration ± SD in dorsal fat,[1]; [3],30 ± 16 n = 6 ng/g
same,Mean concentration ± SD in duodenum content,[1]; [3],2.7 ± 3.1 n = 6 ng/g
same,Mean concentration ± SD in kidney,[1]; [3],No parent compound could be found and neg
same,Mean concentration ± SD in liver,[1]; [3],0.16 ± 0.043 n = 3 ng/g
same,Mean concentration ± SD in lung,[1]; [3],0.41 ± 0.26 n = 6 ng/g
same,Mean concentration ± SD in muscle,[1]; [3],0.62 ± 0.10 n = 6 ng/g
same,Mean concentration ± SD in perirenal fat,[1]; [3],33 ± 31 n = 6 ng/g
same,Mean concentration ± SD in s.c. fat,[1]; [3],51 ± 30 n = 6 ng/g
same,Mean concentration ± SD in urine,[1]; [3],No parent compound could be found and neg
same,Mean concentration ± SD in CB (central blood),[1]; [4],0.25 ± 0.10 n = 5 ng/mL
same,Mean concentration ± SD in PB (peripheral blood),[1]; [4],0.67 ± 0.37 n = 6 ng/mL
same,Mean concentration ± SD in bile fluid,[1]; [4],3.5 ± 3.1 n = 6 ng/g
same,Mean concentration ± SD in brain,[1]; [4],0.23 ± 0.10 n = 6 ng/g
same,Mean concentration ± SD in dorsal fat,[1]; [4],35 ± 26 n = 6 ng/g
same,Mean concentration ± SD in duodenum content,[1]; [4],0.44 ± 0.22 n = 6 ng/g
same,Mean concentration ± SD in kidney,[1]; [4],0.090–0.10 n = 2 ng/g
same,Mean concentration ± SD in liver,[1]; [4],0.21–0.29 n = 2 ng/g
same,Mean concentration ± SD in lung,[1]; [4],0.50 ± 0.085 n = 3 ng/g
same,Mean concentration ± SD in muscle,[1]; [4],0.77 ± 0.28 n = 6 ng/g
same,Mean concentration ± SD in perirenal fat,[1]; [4],30 ± 20 n = 6 ng/g
same,Mean concentration ± SD in s.c. fat,[1]; [4],53 ± 43 n = 6 ng/g
same,Mean concentration ± SD in CB (central blood),[1]; [5],0.20 ± 0.090 n = 5 ng/mL
same,Mean concentration ± SD in PB (peripheral blood),[1]; [5],0.58 ± 0.35 n = 6 ng/mL
same,Mean concentration ± SD in brain,[1]; [5],0.10 ± 0.065 n = 6 ng/g
same,Mean concentration ± SD in dorsal fat,[1]; [5],25 ± 15 n = 6 ng/g
same,Mean concentration ± SD in duodenum content,[1]; [5],0.59 ± 0.48 n = 5 ng/g
same,Mean concentration ± SD in kidney,[1]; [5],0.17 ± 0.16 n = 5 ng/g
same,Mean concentration ± SD in liver,[1]; [5],1.1 ± 2.0 n = 6 ng/g
same,Mean concentration ± SD in lung,[1]; [5],0.65 ± 0.37 n = 5 ng/g
same,Mean concentration ± SD in muscle,[1]; [5],1.0 ± 0.67 n = 6 ng/g
same,Mean concentration ± SD in perirenal fat,[1]; [5],32 ± 35 n = 6 ng/g
same,Mean concentration ± SD in s.c. fat,[1]; [5],40 ± 28 n = 6 ng/g
same,Mean concentration ± SD in CB (central blood),[1]; [6],0.24 ± 0.11 n = 5 ng/mL
same,Mean concentration ± SD in PB (peripheral blood),[1]; [6],0.43 ± 0.16 n = 6 ng/mL
same,Mean concentration ± SD in brain,[1]; [6],0.16 ± 0.16 n = 4 ng/g
same,Mean concentration ± SD in dorsal fat,[1]; [6],33 ± 27 n = 6 ng/g
same,Mean concentration ± SD in duodenum content,[1]; [6],0.89 ± 0.71 n = 6 ng/g
same,Mean concentration ± SD in kidney,[1]; [6],0.23 ± 0.088 n = 5 ng/g
same,Mean concentration ± SD in liver,[1]; [6],0.44 ± 0.18 n = 5 ng/g
same,Mean concentration ± SD in lung,[1]; [6],0.71 ± 0.54 n = 5 ng/g
same,Mean concentration ± SD in muscle,[1]; [6],2.3 ± 2.1 n = 6 ng/g
same,Mean concentration ± SD in perirenal fat,[1]; [6],22 ± 19 n = 6 ng/g
same,Mean concentration ± SD in s.c. fat,[1]; [6],35 ± 26 n = 6 ng/g
same,Concentration in bile fluid,"[1]; 200 µg/kg BW inhalative, PMI 3 (72 h after euthanasia, room temperature), only sampled from 2 pigs",3.6–7.4 n = 2^2 ng/g
same,Mean concentration ± SD in PB (peripheral blood),"[1]; 5F-MDMB-P7AICA 200 µg/kg BW inhalative, PMI 0 (8 h after administration)",0.57 ± 0.19 n = 6 ng/mL
same,Postmortem redistribution (PMR),[1]; 3 days storage at room temperature,no relevant PMR was observed
same,central-to-peripheral blood (C/P) concentration ratio,[1]; PMI 0,lower than 1
same,liver-to-peripheral blood (L/P) ratio,[1]; PMI 0,< 5
same,C/P concentration ratio,[1]; PMI 1–3,< 1
same,L/P concentration ratio,[1]; PMI 1–3,< 5
same,Concentration change in liver specimens,"[1]; PMI 2 and 3 versus PMI 0, p < 0.05",significant higher
same,Concentration change in muscle tissue,"[1]; from PMI 0 to PMI 3, p < 0.05",significantly increased
same,CB concentration in fatal case,[2],0.69 ng/mL
same,PB concentration in fatal case,[2],1.2 ng/mL
same,substrate of the P-glycoprotein,P-glycoprotein,is a substrate of the P-glycoprotein

# From publication PMC11402846, “Does a postmortem redistribution affect the concentrations of the 7 azaindole-derived synthetic cannabinoid 5F-MDMB-P7AICA in tissues and body fluids following pulmonary administration to pigs?” (Archives of Toxicology, 2024)
